Results: ChEMBL document CHEMBL1136599, “Design, synthesis, and structure-activity relationships of substituted piperazinone-based transition state factor Xa inhibitors” (Bioorg Med Chem Lett, 2003)

Key:
[1] = target: Coagulation factor X (Homo sapiens, UniProt P00742); test: In vitro inhibitory activity against factor Xa
[2] = target: Prothrombin (Homo sapiens, UniProt P00734); test: In vitro inhibitory activity against serine protease thrombin

Chain of Coagulation factor X (P00742 41-179 limits assumed): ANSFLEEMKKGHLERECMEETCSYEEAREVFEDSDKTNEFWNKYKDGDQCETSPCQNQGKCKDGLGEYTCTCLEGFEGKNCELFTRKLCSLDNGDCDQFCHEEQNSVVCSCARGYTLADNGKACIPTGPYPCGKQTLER
Chain of Coagulation factor X (P00742 235-488 limits assumed): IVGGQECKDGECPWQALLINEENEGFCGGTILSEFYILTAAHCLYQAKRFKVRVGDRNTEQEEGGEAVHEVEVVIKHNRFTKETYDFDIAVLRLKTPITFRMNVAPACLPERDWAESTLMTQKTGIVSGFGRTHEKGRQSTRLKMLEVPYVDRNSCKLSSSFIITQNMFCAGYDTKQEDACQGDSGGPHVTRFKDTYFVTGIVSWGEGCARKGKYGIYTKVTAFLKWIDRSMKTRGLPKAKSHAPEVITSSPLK

SMILES | IC50 [1] [µM] | IC50 [2] [µM]
N=C(N)NCCC[C@H](NC(=O)CN1CCN(S(=O)(=O)Cc2ccccc2)[C@H](CCC(=O)N2CCCCC2)C1=O)C(=O)c1nccs1 | 0.004 | 3
N=C(N)NCCC[C@H](NC(=O)CN1CCN(S(=O)(=O)Cc2ccccc2)[C@H](CCCNC(=N)N)C1=O)C(=O)c1nccs1 | 0.013 | 3
N=C(N)NCCC[C@H](NC(=O)CN1CCN[C@H](Cc2ccccc2)C1=O)C(=O)c1nccs1 |  | 22
N=C(N)NCCC[C@@H](NS(=O)(=O)Cc1ccccc1)C(=O)NC(=O)CN[C@H](CCCNC(=N)N)C(=O)c1nccs1 | 0.013 | 
N=C(N)NCCC[C@H](NC(=O)CN1CCN(S(=O)(=O)Cc2ccccc2)[C@H](Cc2ccccc2)C1=O)C(=O)c1nccs1 | 0.059 | 2
COC(=O)CC[C@@H]1C(=O)N(CC(=O)N[C@@H](CCCNC(=N)N)C(=O)c2nccs2)CCN1S(=O)(=O)Cc1ccccc1 | 0.001 | 2
N=C(N)NCCC[C@H](NC(=O)CN1CCN[C@@H](Cc2ccccc2)C1=O)C(=O)c1nccs1 | 0.888 | 2
N=C(N)NCCC[C@H](NC(=O)CN1CCN(S(=O)(=O)Cc2ccccc2)[C@@H](CC(=O)N2CCCCC2)C1=O)C(=O)c1nccs1 | 0.154 | 60
N=C(N)NCCCC(NC(=O)CNC(=O)[C@@H](Cc1ccccc1)NS(=O)(=O)Cc1ccccc1)C(=O)c1nccs1 (stereo not given in full) | 0.002 | 
N=C(N)NCCC[C@H](NC(=O)CN1CCN(S(=O)(=O)Cc2ccccc2)[C@H](CC(=O)N2CCCCC2)C1=O)C(=O)c1nccs1 | 0.037 | 8
COC(=O)C[C@H]1C(=O)N(CC(=O)N[C@@H](CCCNC(=N)N)C(=O)c2nccs2)CCN1S(=O)(=O)Cc1ccccc1 | 0.085 | 1
N=C(N)NCCC[C@H](NC(=O)CN1CCN(S(=O)(=O)Cc2ccccc2)[C@@H](CC(=O)O)C1=O)C(=O)c1nccs1 | 0.37 | 325
N=C(N)NCCC[C@H](NC(=O)CN1CCN(S(=O)(=O)Cc2ccccc2)[C@@H](CCCNC(=N)N)C1=O)C(=O)c1nccs1 | 0.003 | 12
N=C(N)NCCC[C@H](NC(=O)CN1CC(=O)N[C@H](CCCNC(=N)N)C1=O)C(=O)c1nccs1 | 0.021 | 200
N=C(N)NCCC[C@H](NC(=O)CN1CCN(S(=O)(=O)Cc2ccccc2)[C@H](CCC(=O)O)C1=O)C(=O)c1nccs1 | 0.004 | 5
CCOC(=O)C[C@H]1C(=O)N(CC(=O)N[C@@H](CCCN=C(N)N)C(=O)c2nccs2)CCN1S(=O)(=O)Cc1ccccc1 | 0.032 | 4
N=C(N)NCCC[C@H](NC(=O)CN1CCN(S(=O)(=O)Cc2ccccc2)[C@H](CC(=O)O)C1=O)C(=O)c1nccs1 | 0.031 | 40
N=C(N)NCCC[C@H](NC(=O)CN1CCN(S(=O)(=O)Cc2ccccc2)[C@H](CO)C1=O)C(=O)c1nccs1 | 0.006 | 2

Further lines, results first:

IC50 [1] [µM] | IC50 [2] [µM] | SMILES
0.008 | 5 | COC(=O)C[C@@H]1C(=O)N(CC(=O)N[C@@H](CCCNC(=N)N)C(=O)c2nccs2)CCN1S(=O)(=O)Cc1ccccc1
0.004 |  | N=C(N)NCCCC(NC(=O)CN1CCN(S(=O)(=O)Cc2ccccc2)CC1=O)C(=O)c1nccs1 (stereo not given)
0.011 | 150 | N=C(N)NCCC[C@H](NC(=O)CN1CC(=O)N[C@@H](CCCNC(=N)N)C1=O)C(=O)c1nccs1
0.007 | 3 | CCOC(=O)C[C@@H]1C(=O)N(CC(=O)N[C@@H](CCCN=C(N)N)C(=O)c2nccs2)CCN1S(=O)(=O)Cc1ccccc1
0.144 | 2 | CS(=O)(=O)N1CCN(CC(=O)N[C@@H](CCCN=C(N)N)C(=O)c2nccs2)C(=O)[C@H]1Cc1ccccc1
0.0009 | 0.507 | N=C(N)NCCC[C@H](NC(=O)CN1CCN(S(=O)(=O)Cc2ccccc2)[C@@H](Cc2ccccc2)C1=O)C(=O)c1nccs1
0.307 | 140 | N=C(N)NCCC[C@H](NC(=O)CN1C=CN[C@@H](CCCNC(=N)N)C1=O)C(=O)c1nccs1
0.02 | 12 | N=C(N)NCCC[C@H](NC(=O)CN1CCN[C@@H](CCCNC(=N)N)C1=O)C(=O)c1nccs1
0.459 | 0.642 | CS(=O)(=O)N1CCN(CC(=O)N[C@@H](CCCNC(=N)N)C(=O)c2nccs2)C(=O)[C@@H]1Cc1ccccc1
